Broadly, the IC50 is the concentration that gives 50% inhibition. As usually defined, the Ki is a dissociation constant, usually derived from enzyme kinetics or from competition with a known ligand. In general, LD50 refers to the dose expected to kill half of the subjects tested.

The values that follow come from US5338845A, “Aspergillus species, cyclic dimeric dipeptide derivative substance P antagonist biosynthetic products thereof, and process for preparation thereof” (Sterling Winthrop Inc., priority 1992, dated 1994).

Bounds are passed on as bounds.

For data set [1], the target named is T1, NK3 (Cavia porcellus, UniProt P30098).
T1 construct: tested in a guinea pig forebrain membrane preparation; from tissue; host or cells: guinea pig forebrain membrane preparation
T1 sequence (P30098 1-440): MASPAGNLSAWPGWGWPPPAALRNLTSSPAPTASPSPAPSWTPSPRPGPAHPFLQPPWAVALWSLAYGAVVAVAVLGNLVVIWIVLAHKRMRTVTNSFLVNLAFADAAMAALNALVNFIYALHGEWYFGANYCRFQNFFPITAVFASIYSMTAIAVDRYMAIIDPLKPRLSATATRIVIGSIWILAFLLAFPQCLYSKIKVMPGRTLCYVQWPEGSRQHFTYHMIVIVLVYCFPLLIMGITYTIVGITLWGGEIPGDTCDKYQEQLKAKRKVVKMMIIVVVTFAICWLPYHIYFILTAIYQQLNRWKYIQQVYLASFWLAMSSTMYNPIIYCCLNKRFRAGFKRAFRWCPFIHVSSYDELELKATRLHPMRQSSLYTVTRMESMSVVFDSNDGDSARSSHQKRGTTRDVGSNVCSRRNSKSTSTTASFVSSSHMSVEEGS
The experiment in a line: NK3 selective ligand 3H-senktide binding, guinea pig forebrain membrane preparation. The conditions noted are these: read-out: IC50 against NK3 selective ligand 3H-senktide.

Data set [2] deals with T2, NK2 receptor (Rattus norvegicus, UniProt P16610).
T2 sequence (P16610 1-390): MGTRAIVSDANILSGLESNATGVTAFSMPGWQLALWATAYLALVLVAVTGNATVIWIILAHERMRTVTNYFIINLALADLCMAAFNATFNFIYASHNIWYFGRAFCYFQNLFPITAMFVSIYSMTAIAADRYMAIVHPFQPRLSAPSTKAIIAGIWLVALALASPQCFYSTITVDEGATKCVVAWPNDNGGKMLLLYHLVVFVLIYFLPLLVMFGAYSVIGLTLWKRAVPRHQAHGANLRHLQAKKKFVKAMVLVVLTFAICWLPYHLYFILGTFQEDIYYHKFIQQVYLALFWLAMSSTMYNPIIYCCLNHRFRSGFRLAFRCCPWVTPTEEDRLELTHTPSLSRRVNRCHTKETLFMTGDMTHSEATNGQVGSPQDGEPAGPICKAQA
The experiment in a line: 125I-neurokinin A binding to the NK2 receptor in rat duodenum membranes. The conditions noted are these: read-out: Ki, inhibition of 125I-neurokinin A binding to the NK2 receptor. Also noted: from tissue.

Data set [3] deals with T3, NK1 (Homo sapiens, UniProt P25103). Put plainly: Substance P NK1 receptor binding, 125I-Bolton Hunter Substance P, human astrocytoma cells (U-373 MG). Also on record: host or cells: U-373 MG human astrocytoma cells (intact monolayer). The conditions noted are these: for IC50: comparative test with ditryptophenaline, read-out: IC50, Substance P antagonist activity in human astrocytoma cells. The procedure: (§1) As stated above the compounds of Formula I are useful as Substance P antagonists and therefore as analgesic and/or antiinflammatory agents. Substance P antagonist NK1 receptor binding activity was determined using guinea pig submaxillary gland tissue and human astrocytoma cells.
T3 sequence (P25103 whole entry): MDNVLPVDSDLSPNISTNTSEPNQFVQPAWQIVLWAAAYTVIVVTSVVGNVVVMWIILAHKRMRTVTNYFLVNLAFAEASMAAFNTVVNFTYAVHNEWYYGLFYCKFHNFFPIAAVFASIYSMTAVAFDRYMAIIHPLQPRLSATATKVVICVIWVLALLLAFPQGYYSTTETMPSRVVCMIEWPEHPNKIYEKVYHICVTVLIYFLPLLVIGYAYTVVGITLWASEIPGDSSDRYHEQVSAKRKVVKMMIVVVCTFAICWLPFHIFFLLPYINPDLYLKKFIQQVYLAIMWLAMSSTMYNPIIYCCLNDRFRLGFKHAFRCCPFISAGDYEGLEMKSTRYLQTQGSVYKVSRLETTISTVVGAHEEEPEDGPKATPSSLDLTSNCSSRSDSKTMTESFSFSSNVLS
Human astrocytoma cells (U--373 MG, ATCC No. HTB 17) were cultured in 75-mL flasks in an aqueous medium containing horse serum (heat inactivated, 10%), minimum essential amino acids (2%), minimum essential vitamin solution (2%), and an aqueous solution of penicillin (10,000 units/mL) and streptomycin (10,000 μg/mL) (Penn-Strep, 2%), which was sterilized by filtration through a disposable filter (Nalgene, VWR Cat. No. 28199-585). The medium was replaced twice weekly. Cells were passaged (1:4 split) by removing the medium and adding aqueous trypsin (0.25%, 8 mL/flask). The flasks were swirled for 30 seconds, the aqueous trypsin was removed, and the cells were incubated for 5 minutes at room temperature, then washed twice with fresh medium (7 mL each time). Poly-D-lysine solution (50 μg/mL in aqueous phosphate saline buffer, 0.25 mL) was added to each well of a sterile 96-well […] plate (Corning), which was then incubated at room temperature for 40 minutes. The poly-D-lysine solution was removed, each well was washed twice with aqueous phosphate saline buffer (0.25 mL), cells were added (0.2 mL/well), and the plate was incubated at 37° C. for two days in an oxygen-carbon dioxide (95:5) atmosphere to provide a monolayer of 1.4-1.9×10^4 cells per well.
To test for receptor binding the aqueous phosphate saline buffer was removed from each well, the cell monolayer was washed three times with assay buffer (aqueous 2-[4-(2-hydroxyethyl)-1-piperazinyl]ethanesulfonic acid [HEPES], 25 mM; potassium chloride, 5.8 mM; monopotassium phosphate, 2.2 mM; sodium chloride, 115 mM; magnesium sulfate, 0.6 mM; calcium chloride, 1.8 mM; bovine serum albumin, 1%; glucose, 5 mM; thiorphan, 1 μM; and bacitracin, 40 μg/mL; pH adjusted to 7.40 with dilute hydrochloric acid; 0.25 mL each time). To each well was then added assay buffer alone (0.1 mL) or a mixture (0.1 mL) with assay buffer as diluent containing ^125 I-Bolton Hunter Substance P (Amersham, Inc., Arlington Heights, Ill.; 0.1 nanomole) and test compound in amount to give the desired concentration thereof or, to determine nonspecific binding, unlabelled Substance P (0.1 micromole) and the plate was incubated at 25° C. for 90 minutes. […] The radioactivity of part (100 μL) of the detachment mixture was measured in a gamma ray counter (Packard Cobra). Kd and IC50 values were determined and a Ki value was calculated for each test compound as described above.

Data set [4] addresses T4, NK2 receptor (Homo sapiens, UniProt P21452).
T4 construct: NK2 receptor in both rat duodenum and human urinary bladder membranes; from tissue; host or cells: human urinary bladder membranes
T4 sequence (P21452 1-398): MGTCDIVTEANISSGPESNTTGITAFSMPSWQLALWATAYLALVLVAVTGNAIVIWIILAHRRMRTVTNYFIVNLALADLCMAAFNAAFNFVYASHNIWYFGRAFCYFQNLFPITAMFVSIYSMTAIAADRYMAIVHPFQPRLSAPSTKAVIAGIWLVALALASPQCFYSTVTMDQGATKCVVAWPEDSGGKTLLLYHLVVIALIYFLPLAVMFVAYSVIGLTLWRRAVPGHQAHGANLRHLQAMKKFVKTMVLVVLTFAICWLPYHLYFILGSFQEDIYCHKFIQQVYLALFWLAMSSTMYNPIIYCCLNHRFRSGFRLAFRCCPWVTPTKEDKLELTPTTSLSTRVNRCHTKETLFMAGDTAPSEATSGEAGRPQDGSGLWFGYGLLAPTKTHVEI
The experiment in a line: 125I-neurokinin A binding to the NK2 receptor in human urinary bladder membranes. To be noted: read-out: Ki, inhibition of 125I-neurokinin A binding to the NK2 receptor.

The target in data set [5] is T2, NK2 receptor. Put plainly: Eledoisin-induced contractility in rat vas deferens model. It is filed as cell-based. Also on record: from tissue; host or cells: rat vas deferens (organ preparation). The conditions noted are these: functional antagonism at the NK2 receptor, read-out: IC50, inhibition of eledoisin-induced contractility.
Data set [6] addresses T5, NK1 (Cavia porcellus, UniProt P30547). The experiment in a line: Substance P NK1 receptor binding, tritiated Substance P, guinea pig submaxillary gland tissue. Also on record: the resulting submaxillary gland tissue preparation (1.0 to 1.5 mL) was stored at -70° C; tissue Pel Freeze Biologicals; host or cells: guinea pig submaxillary gland homogenate. The conditions noted are these: tritiated Substance P 0.75 nM; Ki calculated from IC50 by Cheng-Prusoff; read-out: Ki Guinea Pig Submaxillary Gland Tissue (Substance P antagonist potency). The protocol:
as §1
Submaxillary glands from both sexes of Hartley guinea pigs were obtained from Pel Freeze Biologicals, Rogers, Arkansas by overnight express in a plastic bag kept cold in wet ice. […] Using serum bovine albumin as the standard the protein yield was determined by the Bradford method (Bio-Rad, Richmond, Calif.) to be 7-8 mg/mL or about 250 mg from 50 submaxillary glands.
To test for receptor binding a sample of the submaxillary gland tissue preparation was thawed on ice and rehomogenized with a glass homogenizer (Dounce). […] The residue on the filter was washed three times with tromethamine buffer (3 mL each time) and its radioactivity was measured in a liquid scintillation counter (Beckman LS5000) (x=number of counts per minute with test compound, y=number of counts per minute without test compound). […] The dissociation constant (Kd) for receptor binding was determined by varying the concentration of tritiated Substance P. The following calculations were made: […]

For data set [7], the target named is T5, NK1. The experiment in a line: NK1 functional assay: Substance P-induced contractility in the guinea pig ileum. It is filed as cell-based. Also on record: Substance P-induced contractility in the guinea pig ileum; from tissue; host or cells: guinea pig ileum (organ preparation).
In data set [8] the target is T3, NK1. Put plainly: NK1 functional assay: Substance P-induced 45Ca2+ efflux from human astrocytoma U373MG cells. The class given is cell-based. Also on record: Human astrocytoma cells (U--373 MG, ATCC No. HTB 17) were cultured in 75-mL flasks; host or cells: U-373 MG human astrocytoma cells (intact monolayer). To be noted: read-out: IC50, inhibition of Substance P-induced 45Ca2+ efflux.

The conditions of data set [9]: quoted from Springer et al., Tetrahedron Letters 1977; cited from earlier work.

T5 sequence (P30547 whole entry): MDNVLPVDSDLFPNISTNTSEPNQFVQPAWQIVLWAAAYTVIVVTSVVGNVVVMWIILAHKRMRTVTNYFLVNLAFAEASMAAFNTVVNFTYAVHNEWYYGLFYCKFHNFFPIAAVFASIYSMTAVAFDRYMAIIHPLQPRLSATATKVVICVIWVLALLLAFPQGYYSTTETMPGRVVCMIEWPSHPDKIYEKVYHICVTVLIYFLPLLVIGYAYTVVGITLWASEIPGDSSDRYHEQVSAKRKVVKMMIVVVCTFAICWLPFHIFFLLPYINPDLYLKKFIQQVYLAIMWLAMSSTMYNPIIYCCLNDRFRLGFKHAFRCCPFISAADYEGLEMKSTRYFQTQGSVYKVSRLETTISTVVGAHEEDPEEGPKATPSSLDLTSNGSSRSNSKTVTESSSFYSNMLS

In the case of `O=C1N[C@@H](Cc2ccccc2)C(=O)N2[C@H]3Nc4ccccc4C3([C@]34C[C@H]5C(=O)N[C@@H](Cc6ccccc6)C(=O)N5[C@H]3Nc3ccccc34)C[C@@H]12` (stereo partly drawn) [Compound I-1], the 50% inhibitory concentration (IC50) stood at 15200 nM in [1], 300 nM in data set [3], 3400 ± 1300 nM in [5] and 600 ± 300 nM in data set [8]. Besides, the Ki in [2] is 260 nM; in data set [3] (U-373 MG cells, 125I-Bolton Hunter Substance P, Ki calculated from IC50, read-out: Ki Human Astrocytoma Cells (Substance P antagonist potency)), 240 nM; in [4], 720 nM; in [6], 950 to 2400 nM. Besides, the “Potency relative to ditryptophenaline” value in data set [3] (ratio of IC50 values in human astrocytoma cells) is given as “fortyfold”. Further, the “pA2, competitive inhibition of Substance P-induced contractility” value in [7] came out at 6.6±0.31.

On to `CN1C(=O)[C@@H]2C[C@@]3([C@@]45C[C@H]6C(=O)N(C)[C@@H](Cc7ccccc7)C(=O)N6[C@@H]4Nc4ccccc45)c4ccccc4N[C@H]3N2C(=O)[C@@H]1Cc1ccccc1` [ditryptophenaline, reference compound], for which, in data set [3], the IC50 was determined as 12000 nM. For the same compound, in data set [9], the LD50 is on record as above 200 mg/kg.
